Measured values from publication PMC5772648, “Targeted NUDT5 inhibitors block hormone signaling in breast cancer cells” (Nature Communications, 2018).

What was measured:
Assay type in all cases: cell-based
[1] = molecular target: T1, NUDT5 in intact HL-60 cells (Homo sapiens, UniProt Q9UKK9); test: intact cell CETSA; details: 20 µM, 83 °C
T1 construct: endogenous in cells; host or cells: HL-60
Procedure: For CETSA experiments with cells treated in culture, 1 × 10^6 HL-60 were treated with DMSO (0.1 % v/v final) or 20 µM compound for 3 h at 37 °C and 5% CO2 in a humidified incubator. T47D^WT cells were treated instead with 80 µM TH1659, 15 µM TH5423/5424 and 1.5 µM TH5427. The cells were harvested, washed twice with PBS and resuspended in TBS with protease inhibitors, as above. Heating was identical as before, except that immediately following heating, the cell suspensions were snap frozen in a dry ice/ethanol bath and freeze-thawed, as previously, to lyse cells. Centrifugation at 20 000 × g for 20 min at 4 °C removed cellular debris and protein aggregates, and lysates were prepared for western blotting.

[2] = molecular target: T2, NUDT5 in HL-60 cells (Homo sapiens, UniProt Q9UKK9); test: isothermal dose-response fingerprint CETSA (ITDRFCETSA); details: 20 to 0.06 µM
T2 construct: endogenous in cells; host or cells: HL-60
Procedure: Treatments, heating and lysis procedures for ITDRFCETSA were performed identically to those for CETSA experiments, except NUDT5 inhibitors were added to cells at serial dilutions from 20 to 0.06 µM. Curves were fit by sigmoidal dose-response (variable slope) to derive EC50 values in GraphPad Prism 7.

[3] = system: nuclear ATP production in T47D^WT cells; test: nuclear ATP visualization by bioluminescence (Nuc-luc reporter) after R5020; details: 10 nM R5020
Procedure: (§1) For hormone and inhibitor treatments, normal T47D^WT cells or cells containing a single copy of luciferase under the control of the mouse mammary tumor virus (MMTV) promoter (T47D^M) were used[23]. Prior to hormone induction, cells were grown in phenol red-free RPMI medium supplemented with 10% dextran-coated charcoal-treated FBS (DCC/FBS). After 16 h in serum-free conditions, cells were pre-incubated with DMSO (vehicle) or NUDT5 inhibitor for 2 h at the indicated dose before addition of R5020 (10 nM) or vehicle (ethanol, EtOH) for the allotted time.
T47D^WT cells were seeded in RPMI in black-walled 96-well plates and transfected using Lipofectamine 2000® (Invitrogen, manufacturer’s instructions) with the nuclear-targeted luciferase constructs (Nuc-luc FRTTO[53]) at a final concentration of 50 ng DNA/well for 48 h. 16 h prior to hormone (R5020, 10 nM) exposure, cells were synchronized by serum starvation. Bioluminescence was activated by addition of 100 µl D-luciferin (1 mg/mL water, Sigma) and ATP was quantified using an IVIS system (Xenogen Corp).

[4] = system: histone H1 displacement in T47D cells; test: histone H1 displacement by chromatin immunoprecipitation after R5020; details: 30 min R5020
Procedure: as §1
ChIP assays were performed using a histone H1-specific antibody, AE4 (Abcam)[54]. 1 × 10^7 T47D^M cells (plated and treated with hormone and/or inhibitor, as described above) were cross-linked for 10 min with 1% formaldehyde. Lysates were sonicated (Biorupter sonicator, Diagenode) resulting in DNA fragments with a size range of 200-300 bp. […] The resultant eluted DNA was quantified by Qubit 3.0 Fluorometer (Life Technologies) and qPCR (LightCycler FastStart DNA Master SYBR Green I, Roche). The fold enrichment of target sequences in the immunoprecipitated (IP) compared to input (I) fractions were calculated using the comparative Ct method (2^Ct(IP)−Ct(I)). […]

| SMILES | NUDT5 stabilization in intact cells [1] | ITDRFCETSA dose-dependent stabilization [2] | nuclear luminescence (nuclear ATP) after R5020 ([3]; 15 µM) | histone H1 displacement after R5020 ([4]; 15 µM) | EC50 ([2]; read-out: ITDRFCETSA apparent EC50) | nuclear luminescence (nuclear ATP) after R5020 ([3]; 1.5 µM) | histone H1 displacement after R5020 ([4]; 1.5 µM) |
| --- | --- | --- | --- | --- | --- | --- | --- |
| CCN1CCN(c2nc3c(c(=O)n(C)c(=O)n3C)n2Cc2nnc(-c3ccc(Cl)c(Cl)c3)o2)CC1 [TH5424] | stabilized NUDT5 to nearly the same levels as observed in the 37 °C DMSO control | could also dose-dependently stabilize NUDT5, however much higher concentrations were required | strong luminescence was observed | moderate effects |  |  |  |
| Cn1c(=O)c2c(nc(N3CCNCC3)n2Cc2nnc(-c3ccc(Cl)c(Cl)c3)o2)n(C)c1=O [TH5427] | stabilized NUDT5 to nearly the same levels as observed in the 37 °C DMSO control |  |  |  | 2100 nM | marked reduction in nuclear luminescence | inhibited histone H1 displacement |
